The subject of the experiment is T1, β-glucosidase.
T1 construct: gene beta-D-glucoside glucohydrolase; not purified to one protein, isoenzyme not defined
The experiment in a line: p-nitrophenol release at […] nm; nonlinear fit (Solver). It is filed as biochemical, Aspergillus sp. Particulars: free enzyme, partially purified extract; acetate buffer, optimal pH (4.5) and temperature (65 °C optimum).

Km data for one molecule are collected here from PMC3170910, “Screening of Supports for the Immobilization of β-Glucosidase” (Enzyme Research, 2011).

`O=[N+]([O-])c1ccc(O[C@@H]2O[C@H](CO)[C@@H](O)[C@H](O)[C@H]2O)cc1` [4-Nitrophenyl-β-D-glucopyranoside]: the Km (commonly the concentration of substrate that gives half-maximal velocity) stood at 1600 µM.
